Measured values published in PubChem BioAssay AID1963851 (Molecular Pharmacology Branch, DTP, NCI, 2024).
Where “and” joins values, the source holds several entries; their conditions need not be identical. Identical values can stand only once.

Tested on: 188146-221-R-J1-PDC complex spheroid viability
Test: Anticancer human tumor 188146-221-R-J1-PDC patient-derived colon adenocarcinoma cell line growth inhibition [POLQ]
Details: for viability, T/C: stronger effect = lower value
Protocol: Multicellular complex tumor spheroid response to Polymerase (POL) inhibitors (novobiocin, ART-558, RP6685) in combination with a variety of drugs and investigational agents in selected tumor cell lines
The POL inhibitors (novobiocin, ART-558, and RP6685) were evaluated both individually and in combination with standard of care and investigational anticancer small molecules within a complex spheroid model of solid tumors. . Complex spheroids include a stromal component modeled by human endothelial cells (HUVEC) and fibroblasts modeled by human mesenchymal stem cells (MSCs). The concentration ranges selected for each drug and investigational agent were based upon clinically achievable concentrations if the clinical Cmax of the agent was known.
Compounds. The drugs and investigational agents: novobiocin (NSC847541), ART-558 (NSC835418), RP-6685 (NSC848927), peposertib (NSC802822), ceralasertib (NSC780249), elimusertib (NSC800525), camonsertib (NSC841442), AZD-1390 (NSC803789), olaparib (NSC753686), talazoparib (NSC767125), rucaparib (NSC756644), sotorasib (NSC818433), MRTX-1133 (NSC836407), SN-38 (NSC673596), topotecan (NSC609699), epotoside (NSC141540), doxorubicin (NSC123127), gemcitabine (NSC613327), 5-fluorouracil (NSC19893), paclitaxel (NSC125973), vemurafenib (NSC761431), MSA-2 (NSC828583), SN-011 (NSC837082), adavosertib (NSC754352), prexasertib (NSC758257), carboplatin (NSC241240) and oxaliplatin (NSC266046), were obtained from the National Cancer Institute (NCI) Developmental Therapeutics Program Chemical Repository (21). The FDA-approved anticancer drug set is available from the Developmental Therapeutics Program at https://dtp.cancer.gov/organization/dscb/obtaining/. […] The stock solutions were prepared in dimethyl sulfoxide (DMSO, Sigma-Aldrich, St. Louis, MO, cat. D2650), except for the platinum compounds which were prepared in saline (Quality Biological, Gaithersburg, MD, cat. 114-055-101), at 800-fold the tested concentration and stored at -70 degrees C prior to their use. All drugs and investigational agents were tested over a range starting from a high concentration at or near the clinical Cmax and decreasing in half-log increments. If the clinical Cmax for an agent had not been determined, the highest concentration tested was 10 microM, except for SN-38, which was tested at a high concentration of 1 microM.
Cell Culture. All cells were maintained in an incubator at 37 degrees C and 5% CO2 with 95% humidity. The PDC lines were cultured according to standard operating procedures established by the NCI PDMR (https://pdmr.cancer.gov). Table 3 of the manuscript, lists the cell lines along with the number of the three cell types plated to form the mct-spheroids and media for tumor cell growth. After thawing, all PDC lines, except 997537-175-T-J1-PDC and 415267-285-R-J2-PDC, were cultured in Matrigel-coated flasks prepared with a working solution of 1X Ham's F-12 nutrient mix, without supplementation (Thermo Fisher Scientific, cat. 11765054), 100 U/mL penicillin-streptomycin (Thermo Fisher Scientific, cat. 15140122), and 2.5% Matrigel (Corning Inc., Corning, NY, cat. 354248) for the first three passages. The two PDC lines 997537-175-T-J1-PDC and 415267-285-R-J2-PDC were cultured on uncoated flasks. The 857933-349-R-J2-PDC line was cultured in 6C/Colon 1B media containing advanced DMEM/F-12 (Thermo Fisher Scientific, cat. 12634028), 10 mM HEPES (Thermo Fisher Scientific, cat. 15630080), 1X GlutaMAX supplement (Thermo Fisher Scientific, cat. 35050061), 0.1 mg/mL primocin (InvivoGen, San Diego, CA, cat. ant-pm-2), 10% defined fetal bovine serum, heat inactivated (HyClone Laboratories Inc., Logan, UT, cat. SH30070.03HI), 50% L-WRN conditioned media (ATCC, cat. CRL-3276), 1.25 mM N-Acetyl-L-cysteine (Sigma-Aldrich, cat. A9165), 10 mM nicotinamide (Sigma-Aldrich, cat. N0636), 1X B-27 supplement (Thermo Fisher Scientific, cat. 17504044), 1X N-2 supplement (Thermo Fisher Scientific, cat. […]

[1] = curve of first compound, second compound 0.0316 µM
[2] = curve of first compound, second compound 0.1 µM
[3] = curve of first compound, second compound 0.316 µM
[4] = curve of first compound, second compound 1 µM
[5] = curve of first compound, second compound 3.16 µM
[6] = curve of first compound, second compound 10 µM
[7] = second compound 0.0316 µM, first compound 0.0316 µM
[8] = second compound 0.0316 µM, first compound 0.1 µM
[9] = second compound 0.0316 µM, first compound 0.316 µM
[10] = second compound 0.0316 µM, first compound 1 µM
[11] = second compound 0.0316 µM, first compound 3.16 µM
[12] = second compound 0.0316 µM, first compound 10 µM
[13] = second compound 0.1 µM, first compound 0.0316 µM
[14] = second compound 0.1 µM, first compound 0.1 µM
[15] = second compound 0.1 µM, first compound 0.316 µM
[16] = second compound 0.1 µM, first compound 1 µM
[17] = second compound 0.1 µM, first compound 3.16 µM
[18] = second compound 0.1 µM, first compound 10 µM
[19] = second compound 0.316 µM, first compound 0.0316 µM
[20] = second compound 0.316 µM, first compound 0.1 µM
[21] = second compound 0.316 µM, first compound 0.316 µM
[22] = second compound 0.316 µM, first compound 1 µM
[23] = second compound 0.316 µM, first compound 3.16 µM
[24] = second compound 0.316 µM, first compound 10 µM
[25] = second compound 1 µM, first compound 0.0316 µM
[26] = second compound 1 µM, first compound 0.1 µM
[27] = second compound 1 µM, first compound 0.316 µM
[28] = second compound 1 µM, first compound 1 µM
[29] = second compound 1 µM, first compound 3.16 µM
[30] = second compound 1 µM, first compound 10 µM
[31] = second compound 3.16 µM, first compound 0.0316 µM
[32] = second compound 3.16 µM, first compound 0.1 µM
[33] = second compound 3.16 µM, first compound 0.316 µM
[34] = second compound 3.16 µM, first compound 1 µM
[35] = second compound 3.16 µM, first compound 3.16 µM
[36] = second compound 3.16 µM, first compound 10 µM
[37] = second compound 10 µM, first compound 0.0316 µM
[38] = second compound 10 µM, first compound 0.1 µM
[39] = second compound 10 µM, first compound 0.316 µM
[40] = second compound 10 µM, first compound 1 µM
[41] = second compound 10 µM, first compound 3.16 µM
[42] = second compound 10 µM, first compound 10 µM
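Further: spheroids exposed to compounds for seven days.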
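Wherever viability, T/C is given: 100% = DMSO vehicle control viability.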

O=c1[nH]cc(F)c(=O)[nH]1 + Nc1ccc(C#CCN(C(=O)Cc2ncc(C(F)(F)F)cc2C(F)(F)F)c2ccc(F)cc2)nn1
IC50 [1]: 2920 nM
IC50 [2]: 2730 nM
IC50 [3]: 2140 nM
IC50 [4]: 3660 nM
IC50 [5]: 1620 nM
IC50 [6]: 1990 nM
viability, T/C [7]: 116%
viability, T/C [8]: 111%
viability, T/C [9]: 83.8%
viability, T/C [10]: 54.1%
viability, T/C [11]: 46.6%
viability, T/C [12]: 52.4%
viability, T/C [13]: 121%
viability, T/C [14]: 105%
viability, T/C [15]: 72.6%
viability, T/C [16]: 58%
viability, T/C [17]: 50.3%
viability, T/C [18]: 45.5%
viability, T/C [19]: 113%
viability, T/C [20]: 103%
viability, T/C [21]: 79.2%
viability, T/C [22]: 55.2%
viability, T/C [23]: 48.9%
viability, T/C [24]: 43.2%
viability, T/C [25]: 100%
viability, T/C [26]: 82.4%
viability, T/C [27]: 74.5%
viability, T/C [28]: 58.6%
viability, T/C [29]: 50.1%
viability, T/C [30]: 44.9%
viability, T/C [31]: 102%
viability, T/C [32]: 91.7%
viability, T/C [33]: 74%
viability, T/C [34]: 49.9%
viability, T/C [35]: 46.6%
viability, T/C [36]: 47.5%
viability, T/C [37]: 123%
viability, T/C [38]: 112%
viability, T/C [39]: 85.7%
viability, T/C [40]: 54.6%
viability, T/C [41]: 47.1%
viability, T/C [42]: 43.7%

CCc1c2c(nc3ccc(O)cc13)-c1cc3c(c(=O)n1C2)COC(=O)[C@]3(O)CC
viability, T/C (compound 0.00316 µM): 98.1% and 104% and 88.5%
viability, T/C (compound 0.01 µM): 73.8% and 73.1% and 74.3%
viability, T/C (compound 0.0316 µM): 35.4% and 45.1% and 29.7%
viability, T/C (compound 0.1 µM): 18% and 23.1% and 19.6%
viability, T/C (compound 0.316 µM): 12% and 12.2% and 13.3%
viability, T/C (compound 1 µM): 6.11% and 8.93% and 6.3%
IC50 (curve of compound): 20.9 nM and 25.1 nM and 19 nM

O=c1[nH]cc(F)c(=O)[nH]1
viability, T/C (compound 0.0316 µM): 102% and 101% and 107%
viability, T/C (compound 0.1 µM): 95.6% and 97.8% and 103%
viability, T/C (compound 0.316 µM): 66.6% and 74% and 69.3%
viability, T/C (compound 1 µM): 59.6% and 61.5% and 58.3%
viability, T/C (compound 3.16 µM): 44.9% and 51.3% and 45.6%
viability, T/C (compound 10 µM): 31.6% and 43.5% and 31.8%
IC50 (curve of compound): 1830 nM and 3020 nM and 1680 nM

O=C(Nc1ccc(O)c(NS(=O)(=O)c2ccc(F)cc2)c1)c1ccc(-c2ccccc2)cc1 + Nc1ccc(C#CCN(C(=O)Cc2ncc(C(F)(F)F)cc2C(F)(F)F)c2ccc(F)cc2)nn1
IC50 [1]: > 10000 nM
IC50 [2]: > 10000 nM
IC50 [3]: > 10000 nM
IC50 [4]: > 10000 nM
IC50 [5]: > 10000 nM
IC50 [6]: > 10000 nM
viability, T/C [7]: 104%
viability, T/C [8]: 100%
viability, T/C [9]: 88%
viability, T/C [10]: 109%
viability, T/C [11]: 92.7%
viability, T/C [12]: 72%
viability, T/C [13]: 105%
viability, T/C [14]: 119%
viability, T/C [15]: 109%
viability, T/C [16]: 104%
viability, T/C [17]: 88.9%
viability, T/C [18]: 63.6%
viability, T/C [19]: 119%
viability, T/C [20]: 100%
viability, T/C [21]: 93.5%
viability, T/C [22]: 92%
viability, T/C [23]: 93.6%
viability, T/C [24]: 60.1%
viability, T/C [25]: 124%
viability, T/C [26]: 112%
viability, T/C [27]: 108%
viability, T/C [28]: 79.7%
viability, T/C [29]: 97.8%
viability, T/C [30]: 73.2%
viability, T/C [31]: 111%
viability, T/C [32]: 110%
viability, T/C [33]: 118%
viability, T/C [34]: 99.9%
viability, T/C [35]: 107%
viability, T/C [36]: 60.1%
viability, T/C [37]: 111%
viability, T/C [38]: 118%
viability, T/C [39]: 110%
viability, T/C [40]: 99.1%
viability, T/C [41]: 110%
viability, T/C [42]: 68.6%

C=CC(=O)N1CCN(c2nc(=O)n(-c3c(C)ccnc3C(C)C)c3nc(-c4c(O)cccc4F)c(F)cc23)C(C)C1 (stereo unspecified)
viability, T/C (compound 0.0316 µM): 113% and 101% and 99.7%
viability, T/C (compound 0.1 µM): 104% and 89.7% and 107%
viability, T/C (compound 0.316 µM): 95.9% and 90.8% and 87.1%
viability, T/C (compound 1 µM): 109% and 113% and 108%
viability, T/C (compound 3.16 µM): 92.2% and 92.1% and 101%
viability, T/C (compound 10 µM): 68% and 102% and 77.7%
IC50 (curve of compound): > 10000 nM

Cn1ncnc1[C@H]1c2n[nH]c(=O)c3cc(F)cc(c23)N[C@@H]1c1ccc(F)cc1
viability, T/C (compound 0.000316 µM): 102% and 97.5% and 109%
viability, T/C (compound 0.001 µM): 112% and 93.3% and 103%
viability, T/C (compound 0.00316 µM): 89.9% and 107% and 95.2%
viability, T/C (compound 0.01 µM): 99.5% and 108% and 103%
viability, T/C (compound 0.0316 µM): 104% and 87% and 114%
viability, T/C (compound 0.1 µM): 95.4% and 95.5% and 82.1%
IC50 (curve of compound): > 100 nM

CC(=O)O[C@H]1C(=O)[C@@]2(C)[C@H]([C@H](OC(=O)c3ccccc3)[C@]3(O)C[C@H](OC(=O)[C@H](O)[C@@H](NC(=O)c4ccccc4)c4ccccc4)C(C)=C1C3(C)C)[C@]1(OC(C)=O)CO[C@@H]1C[C@@H]2O
viability, T/C (compound 0.00949 µM): 58.2% and 63% and 74.9%
viability, T/C (compound 0.03 µM): 20.7% and 18.6% and 27.6%
viability, T/C (compound 0.0949 µM): 13.3% and 12.8% and 9.47%
viability, T/C (compound 0.3 µM): 11.7% and 11.9% and 11.2%
viability, T/C (compound 0.949 µM): 15.4% and 12.2% and 9.82%
viability, T/C (compound 3 µM): 13.5% and 12.8% and 9.87%
IC50 (curve of compound): 12.2 nM and 13.3 nM and 17.4 nM

CC(C)n1c(=O)n(C)c2cnc3cc(F)c(-c4ccc(OCCCN5CCCCC5)nc4)cc3c21
viability, T/C (compound 0.0316 µM): 96.9% and 102% and 108%
viability, T/C (compound 0.1 µM): 111% and 96.7% and 100%
viability, T/C (compound 0.316 µM): 88.3% and 89.4% and 92.5%
viability, T/C (compound 1 µM): 105% and 101% and 110%
viability, T/C (compound 3.16 µM): 104% and 106% and 88.8%
viability, T/C (compound 10 µM): 77% and 95.2% and 71.2%
IC50 (curve of compound): > 10000 nM
